Measurements published in patent publication US20240270692A1, “S(+) FORM OF 4-(2,4-DIFLUOROPHENYL)-2-(1H-INDOL-3-YL)-4-OXO-BUTANOIC ACID” (TOHOKU UNIVERSITY, priority 2021, published 2024).

Columns and labels:
HBlEpC cell line = assay: Cytotoxicity evaluation 1: viable cell level by WST-8 assay; format: cell-based, human; conditions: 30 nM to 1 mM, cultured 48 hours
Experimental: Hereinafter, the present invention will be described more specifically with reference to Examples, but the technical scope of the present invention is not limited to these Examples. The INS-1E cell line was cultured in an incubator (37° C., 21% O2, 5% CO2) in the presence of RPMI-1640 Medium (manufactured by GIBCO) containing 11.1 mM glucose, 10% FBS, 1 mM sodium pyruvate, 10 mM HEPES, 2 mM glutamine, 50 μM β-mercaptoethanol, penicillin at 100 U/mL, and streptomycin at 100 μg/mL (hereinafter simply referred to as “RPMI-1640 Medium”). […]
An HBlEpC cell line (manufactured by Cell Application) was seeded in a 96-well plate at 2×10^3 cells per well, 0.1% DMSO, which is a solvent for the compounds, or various concentrations (30 NM, 100 nM, 300 nM, 1 μM, 3 μM, 10 μM, 30 μM, 100 μM, 300 μM, or 1 mM) of three compounds (racemic form of MA5, S(+) form of MA5, or R(−) form of MA5) were added to the HBlEpC culture medium, and the cells were cultured for 48 hours. […] The viable cell level (viable cell count level) after culture was measured by a WST-8 assay using Cell Count Reagent SF (manufactured by Nacalai Tesque, Inc.).

[1] = Metabolism test using human liver microsomes (LC/HRMS); format: in vitro ADME; conditions: incubated 37° C. for 1 hour
Experimental: The S(+) form or the R(−) form of MA5 was dissolved in acetonitrile (for LC-MS, manufactured by Kanto Chemical Co., Inc.) and each adjusted to 10 mM. 855 mg of sucrose (manufactured by FUJIFILM Wako Pure Chemical Corporation) was dissolved in 10 mL of water to prepare a 250 mM sucrose solution, and then by using this solution, a liquid containing 20 mg/mL human liver microsomes (8-donor-pool, manufactured by Sekisui XenoTech, LLC) was diluted 4-fold to prepare a 5 mg/mL human liver microsome suspension. In a 1 mL tube, 5 μL of three test solutions (sucrose solution containing 10 mM S(+) form of MA5, sucrose solution containing 10 mM R(−) form of MA5, or control Vehicle [sucrose solution]), 5 μL of NADPH Regenerating System Solution B (manufactured by Corning Incorporated), 100 μL of UGT Reaction Mix Solution B (manufactured by Corning Incorporated), and 275 μL of water were added to 50 μL of the human liver microsome suspension, and the resulting mixture was shaken for 30 seconds and preincubated at 37° C. for 5 minutes. After that, 25 μL of NADPH Regenerating System Solution A (manufactured by Corning Incorporated) and 40 μL of UGT Reaction Mix Solution A (manufactured by Corning Incorporated) were added, and the resulting mixture was shaken for 30 seconds and incubated at 37° C. for 1 hour. The reaction was stopped by adding 500 μL of an ice-cold acetonitrile solution containing 0.1% formic acid, and the resulting mixture was shaken for 30 seconds, sonicated for 10 minutes, and then centrifuged at 20,000×g at 4° C. for 10 minutes. 50 μL of the supernatant was collected in a fresh 1 mL tube, centrifugally concentrated at 2,000 rpm at room temperature (25 to 35° C.) for 30 minutes, and frozen at −80° C. […]
Q-Exactive (manufactured by Thermo Fisher Scientific Inc.) was used as an HRMS apparatus. […] Additional MS^2 data were measured in target MS^2 mode for both positive and negative ions. […]

Row | SMILES | viability of the cells (viable cell level, OD450) (HBlEpC cell line) | glucuronide conjugates (+C6H8O6 [+1.7 min, +2.6 min]) [1]
1 | O=C(C[C@H](C(=O)O)c1c[nH]c2ccccc12)c1ccc(F)cc1F [S(+) form of MA5, 4-(2,4-difluorophenyl)-2-(1H-indol-3-yl)-4-oxo-butanoic acid] | the viability of the cells was higher with the S(+) form of MA5 than with the R(−) form of MA5 | detected only at a level that was little or no different from the control
2 | O=C(C[C@@H](C(=O)O)c1c[nH]c2ccccc12)c1ccc(F)cc1F [R(−) form of MA5, 4-(2,4-difluorophenyl)-2-(1H-indol-3-yl)-4-oxo-butanoic acid] | the viability of the cells was higher than when the HBlEpC cell line was cultured in the presence of the racemic form of MA5 | detected
